How the values were obtained:
Clock mutant mouse = experiment: Effect on phase delay in Clock mutant mouse (rotating basket exercise); assay type: in vivo; conditions: for % in the initial dark period (rotating basket exercise) / % in the initial dark period (rotating basket exercise), recovery of decrease: vs solvent; for % in the initial dark period (rotating basket exercise): FIG. 3; for exercise starting time: vs average of 7-day preliminary treatment period; for % in the initial dark period (rotating basket exercise), recovery of decrease: FIG. 1
Protocol: Effect on Phase Delay of Compound A in Clock Mutant Mouse
Male Clock mutant mouse (Trans Genic Inc.) and male ICR mouse (CLEA Japan Inc.) were used as a wild-type control in this study. All animals were bred in groups of 4 or 5 animals per cage in a light control room (lights on at 7:00 and 12 hour light/dark cycle) prior to behavioral test. Food and tap water were freely provided.
21-Week-old and 23-week-old mice were used in experiment 1 and experiment 2 (in each experiment, Clock mutant mouse; n=36, ICR mouse; n=12). In both experiments, the animals were placed in a test room and individually bred under 10 hr/14 hr light/dark cycle (lights on at 7:00 and lights off at 17:00) in a cage provided with a rotating basket (diameter 14.5 cm). In addition, 15 Clock mutant mice and 10 ICR mice were prepared as extra animals in the same room in each experiment. Data on the rotating basket exercise were collected every minute and analyzed using Clocklab (registered trade mark) (Actimetrics, Evanston, Ill., USA).
The animals were first acclimated to a new light/dark cycle for about 2 weeks. In the acclimation period, a total number of exercises in 24 hours (total number) for each day, and the percentage of the number of exercise in the light period (7:00 to 17:00) (percentage in the light period) in the total number were measured.
In the preliminary treatment period, the mice were orally administered with a solvent (0.5% methylcellulose solution) at 15:45-16:19 once daily for 2 weeks for acclimation to administration prior to the drug treatment period. […] The solvent or compound A was orally administered to the animals at 15:45 to 16:13 once a day for 7 days.
In the drug treatment period, % in the initial dark period was measured, and the exercise start time was measured using same as an additional index in the Clock mutant mice. Using the aforementioned parameter, the minimum effective dose of compound A in these experiments (experiments 1 and 2) was determined.
The data are shown in average ±SEM. A statistical significance between ICR mouse and Clock mutant mouse was determined by Student's t-test (experiment 1) or Aspin-Welch test (experiment 2) in which P≤0.05 was significant. For analysis of multiple administration of compound A, the statistical significance was determined by one-sided Williams' 20 test (experiments 1 and 2) in which P≤0.025 was significant.

plasma melatonin = experiment: Effect on nocturnal plasma melatonin concentration in rats; assay type: in vivo, rat; conditions: Wistar rats, 3 mg/kg orally once per day for 7 days, vs vehicle, FIG. 5
Protocol: Effect of Compound A on Nocturnal Plasma Melatonin Concentration in Rats
9-Week-old male Wistar rats (CLEA Japan Inc.) were used for this study. All rats (n=12) were bred in groups of 2 to 5 animals per cage in a light control room (lights on at 7:00 and 12 hour light/dark cycle) prior to the test and made to get used to it for about two weeks. Food and tap water were freely provided.
A solvent or compound A was orally administered to 11-week-old rats at a dose of 3 mg/kg once per day at 17:00-17:15 for 7 days. After the final treatment, blood samples (500 μL) were successively collected from the tail artery of each rat at 20:00 (ZT (Zeitgeber Time)) 13), 22:00 (ZT15), 0:00 (ZT17), 2:00 (ZT19), 4:00 (ZT21), 6:00 (ZT23) and 8:00 (ZT25) in EDTA-2Na-containing tube (Lot No. MP0831, CAPIJECT (registered trade mark), Terumo Corporation, Japan). The blood samples were centrifuged at 15,000 rpm, 4° C. for 5 min and the supernatant (200 μL) was preserved at -80° C. until they were treated for radioimmunoassay. Melatonin concentration was measured using a kit (Lot No. 2428.10, BUHLMANN Laboratories AG, Switzerland) commercially available from T.N. TECHNOS., Limited, Japan.
The data are shown in average ±SEM (6 rats in each group). The statistical significance between samples and in samples was determined by repeated measurement ANOVA in which P<0.05 was significant.

delirium [1] = conditions: five patients diagnosed as having delirium; cited from earlier work
delirium [2] = conditions: of 10 patients over 65 years of age who developed delirium with heart failure etc.; cited from earlier work

## CC(=O)NCC[C@@H]1CCc2ccc3nc(C)oc3c21 [compound A, (S)—N-[2-(2-methyl-7,8-dihydro-6H-indeno[5,4-d][1,3]oxazol-8-yl)ethyl]acetamide]
Clock mutant mouse; 0.003 mg/kg orally once a day for 7 days
  % in the initial dark period (rotating basket exercise): did not have a significant effect
Clock mutant mouse; 0.03 mg/kg orally once a day for 7 days
  % in the initial dark period (rotating basket exercise): did not have a significant effect
Clock mutant mouse; 0.03 mg/kg repetitive oral administration, FIG. 4
  exercise starting time: significantly advanced
Clock mutant mouse; 0.3 mg/kg orally once a day for 7 days
  % in the initial dark period (rotating basket exercise), recovery of decrease: improvement effect was significant
Clock mutant mouse; 0.3 mg/kg repetitive oral administration, FIG. 2
  exercise starting time: significantly advanced
Clock mutant mouse; 1 mg/kg orally once a day for 7 days
  % in the initial dark period (rotating basket exercise), recovery of decrease: improvement effect was significant
Clock mutant mouse; 1 mg/kg repetitive oral administration, FIG. 2
  exercise starting time: significantly advanced
Clock mutant mouse; oral, once a day for 7 days
  minimum effective dose (phase retardation): 0.03 mg/kg
Plasma melatonin
  level of melatonin concentration (plasma): significantly increased
  start of plasma melatonin: advanced

## CCC(=O)NCC[C@@H]1CCc2ccc3c(c21)CCO3 [ramelteon, (S)—N-[2-(1,6,7,8-tetrahydro-2H-indeno[5,4-b]furan-8-yl)ethyl]propionamide]
Delirium [1]
  recovery from delirium symptoms: recovered from delirium symptoms the next day
Delirium [2]
  patients in whom delirium was improved: 6 patients

From patent US11173147B2, “Prophylactic or therapeutic agent for delirium” (priority 2016, dated 2021)
